Measurements taken from patent US20250313575A1, “MACROCYCLES AS LRRK2 INHIBITORS, PHARMACEUTICAL COMPOSITIONS, AND USES THEREOF” (Merck Sharp & Dohme LLC, priority 2022, published 2025).

Biological target: GST-tagged truncated human mutant G2019S LRRK2 (Homo sapiens (Human), UniProt Q5S007, G2019S)
Assay: LRRK2 G2019S Km ATP LanthaScreen assay
Assay type: biochemical
Settings: G2019S LRRK2, 134 μM ATP (Km ATP), LRRKtide substrate; for IC50: read-out: LRRK2 pIC50 (converted)
Method in brief: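 Ten-point compound series (highest 9.99 μM in DMSO) preincubated 15 min with 1.25 nM GST-tagged truncated human LRRK2 G2019S, then 90 min reaction at ambient temperature with 134 μM ATP (Km) and fluorescein-labelled LRRKtide, pH 8.5. Phosphorylation read as 520/495 nm emission ratio via Tb-labelled antibody; IC50 from 4P logistic regression.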

Sequence of GST-tagged truncated human mutant G2019S LRRK2 (Q5S007 970-2527 G2019S): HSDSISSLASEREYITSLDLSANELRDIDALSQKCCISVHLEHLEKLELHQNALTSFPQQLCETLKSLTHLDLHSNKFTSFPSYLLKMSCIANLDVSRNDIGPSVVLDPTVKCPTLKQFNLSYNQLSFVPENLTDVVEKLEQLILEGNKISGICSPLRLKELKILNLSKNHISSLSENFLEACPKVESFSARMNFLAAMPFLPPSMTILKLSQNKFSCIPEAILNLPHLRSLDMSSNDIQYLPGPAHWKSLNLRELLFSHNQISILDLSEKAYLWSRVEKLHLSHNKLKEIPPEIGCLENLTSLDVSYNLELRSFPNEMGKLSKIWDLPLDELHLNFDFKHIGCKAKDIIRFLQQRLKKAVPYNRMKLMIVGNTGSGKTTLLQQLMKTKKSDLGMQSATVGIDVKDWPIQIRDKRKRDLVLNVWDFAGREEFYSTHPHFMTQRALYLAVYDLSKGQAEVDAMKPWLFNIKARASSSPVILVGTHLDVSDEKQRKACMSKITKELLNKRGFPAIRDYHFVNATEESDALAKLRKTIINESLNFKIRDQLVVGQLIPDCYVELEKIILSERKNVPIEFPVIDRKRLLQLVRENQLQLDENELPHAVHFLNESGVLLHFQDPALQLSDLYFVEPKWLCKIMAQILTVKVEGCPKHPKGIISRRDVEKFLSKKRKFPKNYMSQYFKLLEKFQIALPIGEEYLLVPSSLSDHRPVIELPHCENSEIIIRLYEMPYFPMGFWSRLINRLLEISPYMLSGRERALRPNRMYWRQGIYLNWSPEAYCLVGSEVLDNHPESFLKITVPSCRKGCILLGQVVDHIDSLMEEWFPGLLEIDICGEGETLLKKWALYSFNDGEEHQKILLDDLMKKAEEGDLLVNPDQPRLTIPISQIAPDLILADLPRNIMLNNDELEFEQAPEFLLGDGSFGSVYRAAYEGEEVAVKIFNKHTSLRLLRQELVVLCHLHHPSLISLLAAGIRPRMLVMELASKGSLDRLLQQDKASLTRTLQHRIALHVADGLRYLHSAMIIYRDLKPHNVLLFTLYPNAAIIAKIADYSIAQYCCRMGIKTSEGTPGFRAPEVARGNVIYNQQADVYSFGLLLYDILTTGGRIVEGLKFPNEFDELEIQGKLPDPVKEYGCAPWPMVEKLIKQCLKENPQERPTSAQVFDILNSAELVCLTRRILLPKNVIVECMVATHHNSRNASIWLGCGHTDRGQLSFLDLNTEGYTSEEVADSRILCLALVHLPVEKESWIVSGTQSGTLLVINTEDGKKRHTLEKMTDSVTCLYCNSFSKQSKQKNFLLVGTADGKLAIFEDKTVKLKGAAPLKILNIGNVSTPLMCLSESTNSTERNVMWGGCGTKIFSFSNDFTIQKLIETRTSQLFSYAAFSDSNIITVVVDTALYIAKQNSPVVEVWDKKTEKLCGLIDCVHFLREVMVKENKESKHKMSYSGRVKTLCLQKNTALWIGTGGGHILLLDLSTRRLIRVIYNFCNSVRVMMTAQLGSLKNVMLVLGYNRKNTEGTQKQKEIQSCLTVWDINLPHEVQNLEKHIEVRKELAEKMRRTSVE

CC1CCOc2c(C(C)(C)C#N)nn(C3CCC3)c2Nc2ncc(C(F)(F)F)c(n2)N1 (single isomer, unassigned) [Ex-2.30, (R)- or (S)-butyl-7-methyl-10-(trifluoromethyl)-1,5,6,7,8,14-hexahydro-9,13-(azeno)pyrazolo[4,3-b][1]oxa[4,6,10]triazacyclotridecin-3-yl)-2-methylpropanenitrile]
LRRK2 pIC50: 10.03

CC(C)(O)Cn1nc(C2CC2)c2c1OC[C@@H]1CC[C@H]1Nc1nc(ncc1C(F)(F)F)N2 [Ex-1.21, 1-((10aR,12aR)-3-cyclopropyl-8-(trifluoromethyl)-10,10a,11,12,12a,13-hexahydro-5,9-(azeno)cyclobuta[k]pyrazolo[3,4-b][1]oxa[4,6,10]triazacyclotridecin-1(4H)-yl)-2-methylpropan-2-ol]
LRRK2 pIC50: >10.09

Cc1nn(C)c2c1OC[C@H]1COC[C@H]1Nc1nc(ncc1C(F)(F)F)N2 [Ex-2.24, (10aS,13aR)- or (10aR,13aS)-1,3-dimethyl-8-(trifluoromethyl)-3,4,10a,11,13a,14-hexahydro-10H,13H-5,9-(azeno)furo[3,4-k]pyrazolo[4,3-b][1]oxa[4,6,10]triazacyclotridecine]
LRRK2 pIC50: 6.05

Cn1nc(C2CC2)c2c1OCC1CCC1Nc1nc(ncc1C(F)(F)F)N2 [Ex-1.8, (10aR,12aS)- or (10aS,12aR)-3-cyclopropyl-1-methyl-8-(trifluoromethyl)-1,4,10,10a,11,12,12a,13-octahydro-5,9-(azeno)cyclobuta[k]pyrazolo-[3,4-b][1]oxa[4,6,10]triazacyclo-tridecine]
LRRK2 pIC50: 5.94

Cc1nn(C(C)C)c2c1OCCC(C)Nc1nc(ncc1C(F)(F)F)N2 (single isomer, unassigned) [Ex-2.9, (R)- or (S)-1-isopropyl-3,7-dimethyl-10-(trifluoromethyl)-1,5,6,7,8,14-hexahydro-9,13-(azeno)pyrazolo[4,3-b][1]oxa[4,6,10]triazacyclotridecine]
LRRK2 pIC50: 6.31

Cc1nn(C2CCC2)c2c1OCC[C@@H]1COCCN1c1nc(ncc1C(F)(F)F)N2 (single isomer, unassigned) [Ex-21.3, (R) or (S)-3-cyclobutyl-1-methyl-8-(trifluoromethyl)-3,4,11,12,14,14a,15,16-octahydro-5,9-(azeno)[1,4]oxazino[4,3-j]pyrazolo[4,3-b][1]oxa[4,6,10]triazacyclotridecine]
IC50: 0.0229 µM

Cc1nn(C2CCC2)c2c1OC[C@@H]1CC[C@H]1Nc1cc(ncc1F)N2 [Ex-13.6, (10aR,12aR)-3-cyclobutyl-8-fluoro-1-methyl-3,4,10,10a,11,12,12a,13-octahydro-5,9-(metheno)cyclobuta[k]pyrazolo[4,3-b][1]oxa[4,6,10]triazacyclotridecine]
LRRK2 pIC50: <5.00

Cn1nc(C(F)(F)F)c2c1Nc1cc(c(Cl)cn1)N[C@@H]1COC[C@H]1CO2 [Ex-13.9, (10aS,13aS)-8-chloro-3-methyl-1-(trifluoromethyl)-3,4,10a,11,13a,14-hexahydro-10H,13H-5,9-(metheno)furo[3,4-k]pyrazolo[4,3-b][1]oxa[4,6,10]triazacyclotridecine]
LRRK2 pIC50: 8.49

COC1CCC1n1nc(C)c2c1Nc1ncc(C(F)(F)F)c(n1)NC1COCC1CO2 [Ex-2.36, (10aS,13aS)-3-((1R,2R)-(10aS,13aS)-3-((1S,2R)-(10aS,13aS)-3-((1R,2S)-(10aS,13aS)-3-((1R,2R)-(10aR,13aR)-3-((1S,2R)-(10aR,13aR)-3-((1R,2S)-2-methoxycyclobutyl)-1-methyl-8-(trifluoromethyl)-3,4,10a,11,13a,14-hexahydro-10H,13H-5,9-(azeno)furo[3,4-k]pyrazolo[4,3-b][1]oxa[4,6,10]triazacyclotridecine]
LRRK2 pIC50: 6.31

FC(F)(F)c1cnc2nc1N[C@@H]1COC[C@H]1COc1cc(Cl)ncc1N2 [Ex-15.8, (3aS,16aS)-13-chloro-6-(trifluoromethyl)-3a,4,16,16a-tetrahydro-1H,3H,10H-5,9-(azeno)furo[3,4-k]pyrido[4,3-b][1]oxa[4,6,10]triazacyclotridecine]
LRRK2 pIC50: 9.04

Cc1nn(C)c2c1OCC1(CNc3nc(ncc3C(F)(F)F)N2)CC12CCOCC2 (single isomer, unassigned) [Ex-2.17, (R)- or (S)-1″,3″-dimethyl-10″- (trifluoromethyl)-1″,2,3,5,6,7″,8″,14″- octahydro-5″H-dispiro[pyran-4,1′-cyclopropane-2′,6″- [9,13](azeno)pyrazolo[4,3-b][1]oxa[4,6,10]triazacyclotridecine]]
LRRK2 pIC50: 8.42

FC(F)(F)c1cnc2nc1NC1CCC1COc1c(C3CCOC3)nn(C3CCC3)c1N2 [Ex-2.64, (10aR,12aR)-3-cyclobutyl-1-((R)-(10aR,12aR)-3-cyclobutyl-1-((S)-(10aS,12aS)-3-cyclobutyl-1-((R)-(10aS,12aS)-3-cyclobutyl-1-((S)-tetrahydrofuran-3-yl)-8-(trifluoromethyl)-3,4,10,10a,11,12,12a,13-octahydro-5,9-(azeno)cyclobuta[k]pyrazolo[4,3-b][1]oxa|4,6,10]triazacyclotridecine]
LRRK2 pIC50: >10.09

Cc1nn(C)c2c1OCC1(CC1)C(C)Nc1nc(ncc1C(F)(F)F)N2 (single isomer, unassigned) [Ex-2.14, (R)- or (S)-1′,3′,7′-trimethyl-10′-(trifluoromethyl)-1′,7′,8',14′-tetrahydro-5′H-spiro[cyclopropane-1,6′-[9,13](azeno)pyrazolo[4,3-b][1]oxa[4,6,10]triazacyclotridecine]]
LRRK2 pIC50: 6.73

O[C@@H]1CC[C@H]1n1nc(C2CC2)c2c1OC[C@@H]1COC[C@H]1Nc1nc(ncc1C(F)(F)F)N2 (single isomer, unassigned) [Ex-6.9, (1R,2R)- or (1S,2S)-2-((10aS,13aS)-3-cyclopropyl-8-(trifluoromethyl)-10a,11,13a, 14-tetrahydro-10H,13H-5,9-(azeno)furo[3,4-k]pyrazolo[3,4-b][1]oxa[4,6,10]triazacyclotridecin-1(4H)-yl)cyclobutan-1-ol]
LRRK2 pIC50: >10.09

Cc1nn(C)c2c1CCC[C@@H](C)Nc1nc(ncc1C(F)(F)F)N2 (single isomer, unassigned) [Ex-11.2, (R)- or (S)-1,3,7-Trimethyl-10-(trifluoromethyl)-4,5,6,7,8,14-hexahydro-1H-9,13-(azeno)pyrazolo[4,3-l][1,3,7]triazacyclotridecine]
IC50: 0.00316 µM

Cc1nn(C2CCC2)c2c1OC1COC[C@H]1CNc1nc(ncc1C(F)(F)F)N2 (single isomer, unassigned) [Ex-2.82, (11aR,14aS) or (11aS,14aR)-3-cyclobutyl-1-methyl-8-(trifluoromethyl)-3,4,10,11,11a,12,14,14a-octahydro-5,9-(azeno)furo[3,4-1]pyrazolo[4,3-b][1]oxa[4,6,10]triazacyclotridecine]
LRRK2 pIC50: 9.60

(R)- or (S)-1-cyclopropyl-3,7-dimethyl-10- (trifluoromethyl)-1,5,6,7,8,14-hexahydro- 9,13-(azeno)pyrazolo[4,3- b][1]oxa[4,6,10]triazacyclotridecine [Ex-2.20]
LRRK2 pIC50: 6.71

Cc1nn(C2CC2(F)F)c2c1OCC1COCC1Nc1nc(ncc1C(F)(F)F)N2 [Ex-2.58, (10aS,13aS)-3-((R)-2,2-difluorocyclopropyl)-1-methyl-8-(trifluoromethyl)-3,4,10a,11,13a,14-hexahydro-10H,13H-5,9-(azeno)furo[3,4-k]pyrazolo[4,3-b][1]oxa[4,6,10]triazacyclotridecine (10aS,13aS)-3-((S)-2,2-difluorocyclopropyl)-1-methyl-8-(trifluoromethyl)-3,4,10a,11,13a,14-hexahydro-10H,13H-5,9-(azeno)furo[3,4-k]pyrazolo[4,3-b][1]oxa[4,6,10]triazacyclotridecine]
LRRK2 pIC50: 8.78

CC(C)n1nc(C(C)(C)C#N)c2c1Nc1ncc(C(F)(F)F)c(n1)N[C@@H]1COC[C@H]1CO2 [Ex-2.43, 2-((10aS,13aS)-3-isopropyl-8-(trifluoromethyl)-3,4,10a,11,13a,14-hexahydro-10H,13H-5,9-(azeno)furo[3,4-k]pyrazolo[4,3-b][1]oxa[4,6,10]triazacyclotridecin-1-yl)-2-methylpropanenitrile]
LRRK2 pIC50: >10.09

COC1CCC1n1nc(C)c2c1Nc1ncc(C(F)(F)F)c(n1)NC1COCC1CO2 [Ex-2.40, (10aS,13aS)-3-((1R,2R)-(10aS,13aS)-3-((1S,2R)-(10aS,13aS)-3-((1R,2S)-(10aS,13aS)-3-((1R,2R)-(10aR,13aR)-3-((1S,2R)-(10aR,13aR)-3-((1R,2S)-2-methoxycyclobutyl)-1-methyl-8-(trifluoromethyl)-3,4,10a,11,13a,14-hexahydro-10H,13H-5,9-(azeno)furo[3,4-k]pyrazolo[4,3-b][1]oxa[4,6,10]triazacyclotridecine]
LRRK2 pIC50: 8.96

Cc1nn(C2CC2)c2c1O[C@@H]1CC[C@@H]1CNc1nc(ncc1C(F)(F)F)N2 [Ex-2.86, (11aR,13aR)- or (11aS,13aS)-3-cyclopropyl-1-methyl-8-(trifluoromethyl)-3,4,10,11,11a,12,13,13a-octahydro-5,9-(azeno)cyclobuta[l]pyrazolo[4,3-b][1]oxa[4,6,10]triazacyclotridecine]
LRRK2 pIC50: 8.13

Cc1nn(C2CC2)c2c1OC[C@@H]1CC[C@H]1Nc1nc(ncc1Cl)N2 [Ex-2.60, (10aR,12aR)-8-chloro-3-cyclopropyl-1-methyl-3,4,10,10a,11,12,12a,13-octahydro-5,9-(azeno)cyclobuta[k]pyrazolo[4,3-b][1]oxa[4,6,10]triazacyclotridecine]
LRRK2 pIC50: 9.41

Cc1c2c(nn1C1CC1)Nc1ncc(C(F)(F)F)c(n1)N[C@@H](C)CCO2 (single isomer, unassigned) [Ex-17.1, (R)- or (S)-2-cyclopropyl-3,7-dimethyl-10-(trifluoromethyl)-2,5,6,7,8,14-hexahydro-9,13-(azeno)pyrazolo[4,3-b][1]oxa[4,6,10]triazacyclotridecine]
LRRK2 pIC50: 6.63
